The target in one test is T1, Jarid1B (Homo sapiens, UniProt Q9UGL1).
T1 construct: purchased BPS Bioscience (or custom made by MolecularThroughput) 50121
T1 sequence (Q9UGL1 2-751): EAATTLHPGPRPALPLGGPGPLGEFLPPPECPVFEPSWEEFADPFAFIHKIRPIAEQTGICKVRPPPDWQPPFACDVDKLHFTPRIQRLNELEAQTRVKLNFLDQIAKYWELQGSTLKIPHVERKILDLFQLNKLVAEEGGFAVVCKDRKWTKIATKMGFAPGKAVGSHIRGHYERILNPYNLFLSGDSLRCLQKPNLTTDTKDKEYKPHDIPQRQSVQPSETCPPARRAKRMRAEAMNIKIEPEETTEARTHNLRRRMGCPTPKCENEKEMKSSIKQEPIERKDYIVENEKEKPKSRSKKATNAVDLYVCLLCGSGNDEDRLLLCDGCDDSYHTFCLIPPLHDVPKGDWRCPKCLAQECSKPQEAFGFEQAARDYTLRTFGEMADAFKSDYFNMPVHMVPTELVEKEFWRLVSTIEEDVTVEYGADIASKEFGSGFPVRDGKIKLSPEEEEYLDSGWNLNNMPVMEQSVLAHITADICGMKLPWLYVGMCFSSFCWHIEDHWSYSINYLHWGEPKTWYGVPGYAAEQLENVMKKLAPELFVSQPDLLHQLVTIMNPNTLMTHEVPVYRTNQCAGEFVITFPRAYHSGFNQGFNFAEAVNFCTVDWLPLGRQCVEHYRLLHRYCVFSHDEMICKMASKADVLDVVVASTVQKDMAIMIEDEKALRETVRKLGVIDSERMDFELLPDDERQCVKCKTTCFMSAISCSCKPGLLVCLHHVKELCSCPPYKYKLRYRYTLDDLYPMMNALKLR
Put plainly: Jarid1B in vitro enzyme inhibition assay (TR-FRET). The class given is biochemical. To be noted: Table 5; 0.8 nM Jarid1B, H3K4me3-biotin labeled peptide; read-out: JARID1B IC5. From the text:
(§1) This assay determines the ability of a test compound to inhibit Jarid1B, JMJD2C and JMJD3 demethylase activity. Baculovirus expressed Jarid1B (GenBank Accession #NM-006618, AA 2-751) was purchased from BPS Bioscience (Cat #50121) or custom made by MolecularThroughput. Baculovirus expressed JMJD2C (GenBank Accession #BC143571, AA 2-372) was purchased from BPS Bioscience (Cat#50105). Baculovirus expressed JMJD3 (GenBank Accession #NM-001080424, AA1043-end) was purchased from BPS Bioscience (Cat#50115).
The ability of test compounds to inhibit the activity of Jarid1B was determined in 384-well plate format under the following reaction conditions: 0.8 nM Jarid1B, 300 nM H3K4me3-biotin labeled peptide (Anaspec cat #64357), 2 µM alpha-ketoglutaric acid in assay buffer of 50 mM HEPES, pH7.3, 0.005% Brij35, 0.5 mM TCEP, 0.2 mg/ml BSA, 50 µM sodium L-ascorbate, and 2 µM ammonium iron(II) sulfate. Reaction product was determined quantitatively by TR-FRET after the addition of detection reagent Phycolink Streptavidin-allophycocyanin (Prozyme) and Europium-anti-mono-or di-methylated histone H3 lysine 4 (H3K4me1-2) antibody (PerkinElmer) in the presence of 5 mM EDTA in LANCE detection buffer (PerkinElmer) at a final concentration of 25 nM and 1 nM, respectively.
(§2) The assay reaction was initiated by the following: 2 µl of the mixture of 900 nM H3K4me3-biotin labeled peptide and 6 µM alpha-ketoglutaric acid with 2 µl of 11-point serial diluted inhibitor in 3% DMSO was added to each well of the plate, followed by the addition of 2 µl of 2.4 nM Jarid1B to initiate the reaction. The reaction mixture was incubated at room temperature for 30 minutes, and terminated by the addition of 6 µl of 5 mM EDTA in LANCE detection buffer containing 50 nM Phycolink Streptavidin-allophycocyanin and 2 nM Europium-anti-H3K4me1-2 antibody. Plates were read by EnVisionMultilabel Reader in TR-FRET mode (excitation at 320 nm, emission at 615 nm and 665 nm) after 1 hour incubation at room temperature. A ratio was calculated (665/615) for each well and fitted to determine inhibition constant (IC50).
In general terms: Time-resolved FRET reads energy transfer from a long-lived donor to a nearby acceptor.

A further test deals with T2, JMJD2C (Homo sapiens, UniProt Q9H3R0).
T2 construct: purchased BPS Bioscience 50105
T2 sequence (Q9H3R0 2-372): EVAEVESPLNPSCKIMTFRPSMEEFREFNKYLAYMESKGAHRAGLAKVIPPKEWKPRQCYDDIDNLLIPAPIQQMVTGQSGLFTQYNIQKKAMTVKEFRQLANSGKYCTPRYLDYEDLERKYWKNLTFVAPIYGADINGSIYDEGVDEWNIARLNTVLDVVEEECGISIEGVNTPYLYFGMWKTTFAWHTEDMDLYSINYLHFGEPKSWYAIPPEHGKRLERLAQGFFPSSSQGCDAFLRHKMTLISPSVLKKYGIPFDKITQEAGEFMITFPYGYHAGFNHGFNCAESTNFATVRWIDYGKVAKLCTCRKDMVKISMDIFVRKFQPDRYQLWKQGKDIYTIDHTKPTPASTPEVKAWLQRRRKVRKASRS
As to the kind of experiment: JMJD2C in vitro enzyme inhibition assay (TR-FRET). Format: biochemical. Conditions: Table 5; 0.3 nM JMJD2C, H3K9me3-biotin labeled peptide.
Description: as §1
The ability of test compounds to inhibit the activity of JMJD2C was determined in 384-well plate format under the following reaction conditions: 0.3 nM JMJD2C, 300 nM H3K9me3-biotin labeled peptide (Anaspec cat #64360), 2 µM alpha-ketoglutaric acid in assay buffer of 50 mM HEPES, pH7.3, 0.005% Brij35, 0.5 mM TCEP, 0.2 mg/ml BSA, 50 µM sodium L-ascorbate, and 2 µM ammonium iron(II) sulfate. Reaction product was determined quantitatively by TR-FRET after the addition of detection reagent Phycolink Streptavidin-allophycocyanin (Prozyme) and Europium-anti-di-methylated histone H3 lysine 9 (H3K9me2) antibody (PerkinElmer) in the presence of 5 mM EDTA in LANCE detection buffer (PerkinElmer) at a final concentration of 50 nM and 1 nM, respectively.
as §2, with “nM H3K9me3-biotin” for “nM H3K4me3-biotin”, “DMSO were” for “DMSO was”, “of 0.9” for “of 2.4”, “nM JMJD2C” for “nM Jarid1B”, “containing 100” for “containing 50”, “nM Europium-anti-H3K9me2” for “nM Europium-anti-H3K4me1-2”

In the case of `FC(F)(F)c1[nH]nnc1-c1ccnc(-c2cn(CCc3ccccc3Cl)cn2)c1` [Example 57], the IC50 on Jarid1B was not above 100 nM; against JMJD2C, more than 10000 nM. The matching figures for `FC(F)(F)c1[nH]nnc1-c1ccnc(-c2cn(CC3CCCc4ccccc43)cn2)c1` (stereo not shown) [Example 58, 2-{1-[(1,2,3,4-tetrahydronaphthalen-1-yl)methyl]-1H-imidazol-4-yl}-4-[5-(trifluoromethyl)-1H-1,2,3-triazol-4-yl]pyridine]: not above 100 nM and more than 10000 nM. The like results for `CCOc1ccccc1CCn1cnc(-c2cc(-c3nn[nH]c3C(F)(F)F)ccn2)c1` [Example 59] were, in that order, not above 100 nM and more than 10000 nM. The like results for `FC(F)(F)c1ccccc1CCn1cnc(-c2cc(-c3nn[nH]c3C(F)(F)F)ccn2)c1` [Example 60, 4-[5-(trifluoromethyl)-1H-1,2,3-triazol-4-yl]-2-(1-{2-[2-(trifluoromethyl)phenyl]ethyl}-1H-imidazol-4-yl)pyridine] were, in that order, not above 100 nM and 1000 to 10000 nM. Turning to `Fc1ccc(Cn2cnc(-c3cc(-c4nn[nH]c4C(F)(F)F)ccn3)c2)cc1` [Example 61, 2-{1-[(4-fluorophenyl)methyl]-1H-imidazol-4-yl}-4-[5-(trifluoromethyl)-1H-1,2,3-triazol-4-yl]pyridine], the IC50 is 100 to 1000 nM at Jarid1B and more than 10000 nM at JMJD2C.

As for `Fc1ccccc1Cn1cnc(-c2cc(-c3nn[nH]c3C(F)(F)F)ccn2)c1` [Example 62, 2-{1-[(2-fluoroprtenyl)methyl]-1H-imidazol-4-yl}-4-[5-(trifluoromethyl)-1H-1,2,3-triazol-4-yl]pyridine], the results for the IC50 on Jarid1B and against JMJD2C were 100 to 1000 nM and more than 10000 nM, respectively.

With `FC(F)(F)c1[nH]nnc1-c1ccnc(-c2cn(Cc3ccc(Cl)cc3)cn2)c1` [Example 63, 2-{1-[(4-chlorophenyl)methyl]-1H-imidazol-4-yl}-4-[5-(trifluoromethyl)-1H-1,2,3-triazol-4-yl]pyridine], the IC50 was 100 to 1000 nM on Jarid1B and more than 10000 nM at JMJD2C. Consider `FC(F)(F)c1[nH]nnc1-c1ccnc(-c2cn(Cc3ccccc3Cl)cn2)c1` [Example 64, 2-{1-[(2-chlorophenyl)methyl]-1H-imidazol-4-yl}-4-[5-(trifluoromethyl)-1H-1,2,3-triazol-4-yl]pyridine], for which the IC50 was 100 to 1000 nM on Jarid1B and more than 10000 nM at JMJD2C. As to `Cc1ccc(Cn2cnc(-c3cc(-c4nn[nH]c4C(F)(F)F)ccn3)c2)cc1` [Example 65, 2-{1-[(4-methylphenyl)methyl]-1H-imidazol-4-yl}-4-[5-(trifluoromethyl)-1H-1,2,3-triazol-4-yl]pyridine], the IC50 at Jarid1B and at JMJD2C was more than 10000 nM throughout. For `Cc1ccccc1Cn1cnc(-c2cc(-c3nn[nH]c3C(F)(F)F)ccn2)c1` [Example 66, 2-{1-[(2-methylphenyl)methyl]-1H-imidazol-4-yl}-4-[5-(trifluoromethyl)-1H-1,2,3-triazol-4-yl]pyridine], the IC50 is 100 to 1000 nM at Jarid1B and more than 10000 nM against JMJD2C. Take `COc1ccc(Cn2cnc(-c3cc(-c4nn[nH]c4C(F)(F)F)ccn3)c2)cc1` [Example 67, 2-{1-[(4-methoxyphenyl)methyl]-1H-imidazol-4-yl}-4-[5-(trifluoromethyl)-1H-1,2,3-triazol-4-yl]pyridine]: the IC50 on Jarid1B fell in the range of 100 to 1000 nM; at JMJD2C it was 1000 to 10000 nM. The like results for `Fc1ccc(Cn2cnc(-c3cc(-c4nn[nH]c4C(F)(F)F)ccn3)c2)c(F)c1` [Example 68, 2-{1-[(2,4-difluorophenyl)methyl]-1H-imidazol-4-yl}-4-[5-(trifluoromethyl)-1H-1,2,3-triazol-4-yl]pyridine] were, in that order, 100 to 1000 nM and more than 10000 nM. The matching figures for `Fc1cccc(F)c1Cn1cnc(-c2cc(-c3nn[nH]c3C(F)(F)F)ccn2)c1` [Example 69, 2-{1-[(2,6-difluorophenyl)methyl]-1H-imidazol-4-yl}-4-[5-(trifluoromethyl)-1H-1,2,3-triazol-4-yl]pyridine]: 100 to 1000 nM and more than 10000 nM. The like results for `Cc1cc(F)ccc1Cn1cnc(-c2cc(-c3nn[nH]c3C(F)(F)F)ccn2)c1` [Example 70, 2-{1-[(4-fluoro-2-methylphenyl)methyl]-1H-imidazol-4-yl}-4-[5-(trifluoromethyl)-1H-1,2,3-triazol-4-yl]pyridine] were, in that order, 100 to 1000 nM and more than 10000 nM.

Regarding `Cc1ccc(Cn2cnc(-c3cc(-c4nn[nH]c4C(F)(F)F)ccn3)c2)c(F)c1` [Example 71, 2-{1-[(2-fluoro-4-methylphenyl)methyl]-1H-imidazol-4-yl}-4-[5-(trifluoromethyl)-1H-1,2,3-triazol-4-yl]pyridine], the IC50 at Jarid1B is 100 to 1000 nM; at JMJD2C, more than 10000 nM. Turning to `FC(F)(F)c1[nH]nnc1-c1ccnc(-c2cn(Cc3ccccc3)cn2)c1` [Example 72, 2-(1-benzyl-1H-imidazol-4-yl)-4-[5-(trifluoromethyl)-1H-1,2,3-triazol-4-yl]pyridine], the IC50 was 100 to 1000 nM on Jarid1B and more than 10000 nM on JMJD2C. The compound `CC(C)C(c1ccccc1)n1cnc(-c2cc(-c3nn[nH]c3C(F)(F)F)ccn2)c1` (stereo not shown) [Example 75, 2-[1-(2-methyl-1-phenylpropyl)-1H-imidazol-4-yl]-4-[5-(trifluoromethyl)-1H-1,2,3-triazol-4-yl]pyridine] had an IC50 against JMJD2C of more than 10000 nM.

In turn, `Fc1cccc2c1CCCC2Cn1cnc(-c2cc(-c3nn[nH]c3C(F)(F)F)ccn2)c1` (stereo not shown) [Example 99, 2-{1-[(5-fluoro-1,2,3,4-tetrahydronaphthalen-1-yl)methyl]-1H-imidazol-4-yl}-4-[5-(trifluoromethyl)-1H-1,2,3-triazol-4-yl]pyridine] displayed an IC50 on JMJD2C of more than 10000 nM.
